In patent publication US5929082A, “Potassium ion channel blockers” (priority 1995, dated 1999):

What was measured:
[1] = Kinetic/metabolite studies: HPLC analysis of plasma after oral administration; assay type: in vivo, Sprague-Dawley rats; conditions: for Compound in plasma / metabolites observed in plasma: after oral administration, HPLC; for metabolites observed in plasma: in words; for time within which the compound is metabolised after administration: oral administration
Method: Plasma samples were collected in order to test the correlation of plasma drug (or metabolite) concentration with hypoglycaemic activity, and to determine whether compounds of the invention were converted in vivo into active metabolites. The plasma levels of test compounds or metabolites also give an indication of rate of metabolism and kinetics of drug action.
Blood samples collected from rats treated as above and collected at the same intervals were analysed using an ICI LC1150 HPLC system and a LC1210 UV detector at a wavelength of 227 nm. The HPLC system used a Merck LiChroCART 125-4 LiChrosphere 100 RP-18 HPLC and LiChrosphere 100 RP-18 guard columns. The mobile phase consisted of 70% acetonitrile and a 30% aqueous sodium phosphate buffer at pH 7.45 and was prepared using standard HPLC grade reagents and distilled water. To improve the resolution of peaks and separation of the compounds a gradient method was established where changes in the concentration of the required buffers and solvents, and the time at which these changes occur is outlined in Table 7. The volumes are expressed as percentages of the total flow rate, with the flow rate remaining constant at […].
The data were acquired using the WinChrom Data Management system and were calibrated using stock solutions of the test compounds and Glibenclamide as an internal standard dissolved in 100% methanol
Plasma (250 μL) collected from the rats were extracted into methanol (700 μL) and 50 μL of Glibenclamide (25 μg/ml). The mixture was then agitated with a vortex mixer for 15 sec and centrifuged for 10 min. The clear supernatant was then carefully aspirated for HPLC analysis.
The results are outlined in Table 8 and show retention times (minutes) for the compounds and their metabolites as analysed by HPLC after oral administration in Sprague-Dawley rats. […] Glibenclamide is shown for comparison only, none of the metabolites observed with the test compounds correspond to metabolites of Glibenclamide.

[2] = Hypoglycaemic activity: change in blood glucose after oral gavage; assay type: in vivo, Sprague Dawley rats; conditions: 1.6 mg/kg oral gavage, normal fed male rats
Method: The biological activity of representative compounds of the invention was evaluated by means of several different tests. The activity of compounds of this invention as hypoglycaemic agents was measured and compared with the activity of the known compound of Example 1, using methods described in the literature. Thus normal, fed male Sprague Dawley rats weighing between 275 and 375 g were studied for changes in blood sugar levels and alterations to mean arterial blood pressure following administration of representative compounds of the invention suspended in a 5% solution of gum acacia by oral gavage at a dose of 1.6 mg/kg. The concentration of each compound was 4 mg in 10 ml, so that each rat received 1.1-1.5 ml to obtain the desired dose on a body weight basis. The blood sugar levels were recorded for each rat immediately prior to administration, and at 1, 2, and 3 hr following administration of the test compounds. Blood glucose levels were determined on blood samples taken from the tail, and analysed on an Ames blood glucometer, model 5626, and Ames, 2627 blood glucose strips (number 2). […] It is apparent that generally the heterocyclic sulphonylthioureas have greater activity than the sulphonylureas. Without wishing to be bound by any proposed mechanism for the observed effect, we believe that this may be associated with differences in lipid permeability.

[3] = test system: isolated guinea pig atria; assay: Cardiac effects on isolated atrial preparations; set-up: species or system English short-haired guinea pigs; conditions: bath concentration 8×10^-6 M, 37° C., maximum responses
Method: Preliminary investigations were performed on isolated atrial preparations, and the results obtained using representative compounds of the invention compared to those obtained using the known compound of Example 1 and using Glibenclamide. English short-haired guinea pigs weighing between 200 and 300 g were killed by cervical dislocation. The whole heart was quickly removed by dissection and immersed in a Krebs-Henseleit solution, which had been aerated with carbogen (95% oxygen and 5% carbon dioxide). The atria were then separated by dissection in Krebs-Henseleit solution, whilst being aerated with carbogen.
The atria were then immersed in a 10 ml organ bath containing Krebs-Henseleit solution, maintained at 37° C. for the duration of the experiment by the circulation of water through the water jackets of organ baths by a temperature controlled water pump (Braun Thermomix, Germany), and aerated with carbogen. […] Changes in tension were measured by isometric force transducers and were recorded on a four channel Grass 7P Polygraph (Grass Instruments, Quincy, Mass., USA) which was calibrated daily such that the atria functioned with a resting tension of 1 g. The rate of beating of the atria was measured by the tachograph.
The activity of each test compound was assessed and compared to that of glibenclamide. […]

[4] = test system: MCF-7 mammary carcinoma cells; assay: Thymidine uptake ([methyl-3H] thymidine incorporation into DNA); assay type: cell-based, human; conditions: 100 μM (printed 100 μH / 100 mM), compared to control group; Glibenclamide n=3, Compound 1-24 n=4
Method: Incorporation of [methyl-3H] thymidine into DNA was measured as described by Murphy and Lazarus (1983), using MCF-7 mammary carcinoma cells treated with compound 1-24 (100 μH) and a control group. The growth medium from cells cultured as described in Example 24 was aspirated from the wells, and 1 mL of fresh growth medium containing 1 μCi [3H]-thymidine (Amersham) was added to each well After 4 hours incubation, the medium was aspirated and the monolayers were washed three times with ice cold phosphate buffered saline (ICN). This was followed by three washes with 10% (v/v) ice cold trichloroacetic acid, each of 5 minutes duration. After another three washes with absolute ethanol at room temperature of 5 minutes duration, the monolayer was dried at room temperature for 10 minutes. The monolayer was […] after incubation for 12 hours with 0.5 N NaOH and 1% Triton-X 100 (Sigma). An aliquot of the cell lysate was added to 10 ml of Ultima Gold (Packard) and counted using a liquid scintillation counter (Packard model 19006A).

[5] = test system: MCF-7 human mammary carcinoma cells; assay: Cell proliferation of MCF-7 tumour cells; assay type: cell-based; conditions: 100 μM compound
Method: The ability of a representative compound of the invention to inhibit proliferation of a tumour cell line was examined. MCF-7 human mammary carcinoma cells (Woodfork et al, 1995) were grown in 25 cm^2 Corning flasks in a 5% CO2 water jacket incubator. The medium used for the culture was RPMI 1640 (ICN) and was supplemented with 10% foetal Bovine serum (Cytosystems).
Cells and medium were examined daily to check for growth and infection. The medium was changed every second day. When cells reached 70-80% confluence, the cells were trypsinized with 0.05% trypsin (1:250, "DIFCO") and 0.02% EDTA.
The flasks were firstly washed with a phosphate buffer to remove residual RPMI 1640 medium, then covered with 2 mL of the trypsin solution and left in the incubator for 3-5 minutes. The cells were then transferred to a conical tube containing 2 mL of medium and 10% foetal bovine serum. The cells were centrifuged at 1000 rpm for 3 minutes and the supernatant removed 5 ml of the medium was then added to the pellet of cells and resuspended with a 2 ml pipette.
Approximately 10 μL of medium containing the cells was placed in a Neubauer haemocytometer, and the cells were counted in the 4×1 mm^2 grid per chamber. Cells were then diluted to contain 60×10^4 cells to be added to "Corning" 24 well plates (16 mm diameter). Wells respectively containing the control group and 100 μM compound 1-24 were established, and 3 wells/group/day were used to perform the cell growth study.
Each well contained 500 μL of medium or of compound 1-24. Plates were incubated for 24 hours before counting. The medium was aspirated with different pipette tips for the different study groups 100 μL of 0.02% EDTA solution was added to each well and incubated for 5 minutes. 200 μL of trypsin-EDTA was then added, and the cells incubated for a further 5 minutes, aspirated, and placed in 0.5 mL Eppendorf tubes before counting in a haemocytometer.

[6] = Cohen, 1986; cited from earlier work

SMILES | Compound in plasma [1] | metabolites observed in plasma [1] | Change in Blood Glucose, 0 hours [2] | Change in Blood Glucose, 1 Hour [2] | Change in Blood Glucose, 2 Hours [2] | Change in Blood Glucose, 3 Hours [2] | also measured
CCOc1cccc(NC(=O)NS(=O)(=O)c2ccc(C)cc2)n1 [Compound 1-4, N-[(4-Methylphenyl)sulphonyl]-N'-(6-ethoxypyrid-2-yl)urea] | yes | no metabolites were observed in the 4 hour period | – | – | – | – | –
Cc1ccc(S(=O)(=O)NC(=S)Nc2cccc(Br)n2)cc1 [Compound 1-21, N-[(4-Methylphenyl)sulphonyl]-N'-(6-bromopyrid-2-yl)thiourea] | – | – | 0.0 mmol/L | -0.9 mmol/L | -2.1 mmol/L | -0.7 mmol/L | –
CCOc1cccc(NC(=S)NS(=O)(=O)c2ccc(C)cc2)n1 [Compound 1-24] | no | numerous metabolites in the plasma | 0.0 mmol/L | 0.5 mmol/L | -2.2 mmol/L | -1.8 mmol/L | inotropic activity [3]: particularly marked inotropic activity; time within which the compound is metabolised after administration [1]: ≤ 2 h; inhibition of thymidine uptake [4]: significant inhibition; doubling rate of control group greater than that of cells exposed to compound [5]: approximately 25%; Rate of cell growth: mean cell number, Day 0 ([5]; day 0, n=1 in triplicate): 60,000; Rate of cell growth: mean cell number, Day 1 ([5]; day 1, control 58,000): 74,000; Rate of cell growth: mean cell number, Day 2 ([5]; day 2, control 110,000): 93,000; Rate of cell growth: mean cell number, Day 3 ([5]; day 3, control 188,000): 143,000; Rate of cell growth: mean cell number, Day 6 ([5]; day 6, control 355,000): 230,000; effect on MCF-7 tumour cell proliferation ([5]; in words): reduces MCF-7 tumour cell proliferation
CCOc1cc(NC(=S)NS(=O)(=O)c2ccc(C)cc2)ccn1 [Compound 3-15, N-[(4-Methylphenyl)sulphonyl]-N'-(2-ethoxypyrid-4-yl)thiourea] | no | numerous metabolites in the plasma | – | – | – | – | time within which the compound is metabolised after administration [1]: ≤ 2 h
Cc1ccc(S(=O)(=O)NC(=S)Nc2ccncc2)cc1 [Compound 3-23, N-[(4-Methylphenyl)sulphonyl]-N'-(4-pyridyl)thiourea] | – | – | 0.0 mmol/L | -1.0 mmol/L | -1.4 mmol/L | -2.1 mmol/L | inotropic activity [3]: particularly marked inotropic activity
Cc1ccc(S(=O)(=O)NC(=S)Nc2nc(C)cc(C)n2)cc1 [Compound 4-36, N-[(4-Methylphenyl)sulphonyl]-N'-(4,6-dimethylypyrimid-2-yl)thiourea] | – | – | 0.0 mmol/L | -1.1 mmol/L | -1.6 mmol/L | -1.3 mmol/L | –
Cc1ccc(S(=O)(=O)NC(=O)Nc2nc(C)cc(C)n2)cc1 [Compound of Example 1, reference compound] | – | – | 0.0 mmol/L | -0.8 mmol/L | -2.1 mmol/L | -0.8 mmol/L | –
CC(N/C(=N\C#N)Nc1ccncc1)C(C)(C)C (stereo not drawn) [pinacidil] | – | – | – | – | – | – | vasodilator activity [6]: vasodilator activity
